Data from paper PMC5291709, “Structure of the active form of human origin recognition complex and its ATPase motor module” (eLife, 2017).
Positions count from the first letter of the chain named.

Experiments:
[1] = biological target: T1, HsORC1-5 (Homo sapiens, UniProt O43913+O43929+Q13415, Q13415:R720Q); experiment: radiolabelled ATPase assay, TLC; type: biochemical; conditions: 50 mM Hepes-NaOH pH 7.5, 200 mM KCl, 5 mM MgCl2, 5 mM DTT, 37 C, 12.5-200 uM ATP, 10 uM complex; [gamma-32P]ATP tracer; ORC1/4 interface; Meier-Gorlin Syndrome mutant
T1 construct: gene ORC1; heteropentamer without ORC6; Sf9 insect cells; with Origin recognition complex subunit 5; Origin recognition complex subunit 2; Origin recognition complex subunit 3
T1 sequence (Q13415 471-861 R720Q): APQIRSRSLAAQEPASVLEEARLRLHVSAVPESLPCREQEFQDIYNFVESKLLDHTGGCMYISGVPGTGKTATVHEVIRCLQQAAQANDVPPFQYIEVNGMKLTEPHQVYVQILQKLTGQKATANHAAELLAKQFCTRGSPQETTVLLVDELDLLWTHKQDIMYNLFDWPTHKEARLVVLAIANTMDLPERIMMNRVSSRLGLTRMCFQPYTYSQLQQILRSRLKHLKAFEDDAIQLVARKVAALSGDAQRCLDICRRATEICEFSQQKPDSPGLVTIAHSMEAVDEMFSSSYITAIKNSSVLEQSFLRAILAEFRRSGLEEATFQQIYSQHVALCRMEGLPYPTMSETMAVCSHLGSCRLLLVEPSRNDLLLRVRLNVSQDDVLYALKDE
T1 sequence (O43929 whole entry): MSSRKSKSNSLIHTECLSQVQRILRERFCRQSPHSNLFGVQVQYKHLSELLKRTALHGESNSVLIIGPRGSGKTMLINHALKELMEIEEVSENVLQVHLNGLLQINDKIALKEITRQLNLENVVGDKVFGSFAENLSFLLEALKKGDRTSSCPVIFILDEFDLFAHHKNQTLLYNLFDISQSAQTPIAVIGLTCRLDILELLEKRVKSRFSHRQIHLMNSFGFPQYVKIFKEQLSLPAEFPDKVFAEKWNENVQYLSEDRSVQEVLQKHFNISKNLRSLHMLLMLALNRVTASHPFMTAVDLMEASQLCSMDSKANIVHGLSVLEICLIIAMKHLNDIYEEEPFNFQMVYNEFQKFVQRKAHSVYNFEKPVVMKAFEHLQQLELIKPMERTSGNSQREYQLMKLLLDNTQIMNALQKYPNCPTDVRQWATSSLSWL
T1 sequence (O43913 whole entry): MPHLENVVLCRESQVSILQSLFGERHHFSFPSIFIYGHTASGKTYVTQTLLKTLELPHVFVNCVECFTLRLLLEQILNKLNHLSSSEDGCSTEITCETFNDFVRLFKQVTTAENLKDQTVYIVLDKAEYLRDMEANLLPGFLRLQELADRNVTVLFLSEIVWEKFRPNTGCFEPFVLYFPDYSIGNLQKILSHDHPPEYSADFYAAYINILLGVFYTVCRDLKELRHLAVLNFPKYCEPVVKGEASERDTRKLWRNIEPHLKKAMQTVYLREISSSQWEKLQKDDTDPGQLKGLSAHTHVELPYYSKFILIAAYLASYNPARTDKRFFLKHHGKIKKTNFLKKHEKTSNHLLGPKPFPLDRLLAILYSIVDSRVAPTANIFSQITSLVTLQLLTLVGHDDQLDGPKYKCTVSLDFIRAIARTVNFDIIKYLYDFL
T1 sequence (Q13416 whole entry partner): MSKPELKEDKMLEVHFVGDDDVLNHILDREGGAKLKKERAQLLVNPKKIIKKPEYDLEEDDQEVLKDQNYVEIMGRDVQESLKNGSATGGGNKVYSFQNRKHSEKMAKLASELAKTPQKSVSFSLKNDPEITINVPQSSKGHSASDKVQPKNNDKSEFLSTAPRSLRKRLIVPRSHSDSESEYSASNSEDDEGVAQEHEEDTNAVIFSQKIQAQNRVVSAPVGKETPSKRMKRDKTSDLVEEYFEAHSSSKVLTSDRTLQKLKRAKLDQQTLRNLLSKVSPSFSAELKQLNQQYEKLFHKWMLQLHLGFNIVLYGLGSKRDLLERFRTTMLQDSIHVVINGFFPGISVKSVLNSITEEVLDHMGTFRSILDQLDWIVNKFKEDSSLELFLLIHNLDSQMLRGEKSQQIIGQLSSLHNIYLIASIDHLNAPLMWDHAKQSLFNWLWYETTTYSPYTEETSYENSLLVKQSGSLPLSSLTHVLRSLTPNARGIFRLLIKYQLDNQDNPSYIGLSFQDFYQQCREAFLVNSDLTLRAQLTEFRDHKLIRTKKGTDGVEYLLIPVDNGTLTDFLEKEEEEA
T1 sequence (Q9UBD5 whole entry partner): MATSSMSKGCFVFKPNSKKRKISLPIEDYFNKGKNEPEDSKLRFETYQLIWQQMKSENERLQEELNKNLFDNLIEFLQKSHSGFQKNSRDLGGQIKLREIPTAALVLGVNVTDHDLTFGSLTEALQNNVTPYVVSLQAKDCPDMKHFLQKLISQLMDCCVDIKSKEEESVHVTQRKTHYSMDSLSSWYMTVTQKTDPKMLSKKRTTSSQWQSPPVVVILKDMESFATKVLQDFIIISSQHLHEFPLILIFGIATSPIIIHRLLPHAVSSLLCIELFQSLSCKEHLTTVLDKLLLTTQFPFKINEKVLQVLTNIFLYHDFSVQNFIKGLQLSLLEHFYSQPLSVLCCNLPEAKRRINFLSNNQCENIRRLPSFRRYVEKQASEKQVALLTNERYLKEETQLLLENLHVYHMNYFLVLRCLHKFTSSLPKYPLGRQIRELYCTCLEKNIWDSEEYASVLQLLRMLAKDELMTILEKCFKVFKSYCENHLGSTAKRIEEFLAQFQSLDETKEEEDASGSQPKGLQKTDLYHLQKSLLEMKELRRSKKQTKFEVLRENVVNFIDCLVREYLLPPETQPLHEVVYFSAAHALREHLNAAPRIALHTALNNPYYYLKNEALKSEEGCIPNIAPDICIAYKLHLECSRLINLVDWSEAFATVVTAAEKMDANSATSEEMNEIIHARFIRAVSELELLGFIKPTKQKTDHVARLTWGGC

[2] = biological target: T2, HsORC motor module (HsORC1/4/5) (Homo sapiens, UniProt O43913+O43929+Q13415, O43929:D159A/Q13415:D620A); experiment: radiolabelled ATPase assay, TLC; type: biochemical; conditions: 50 mM Hepes-NaOH pH 7.5, 200 mM KCl, 5 mM MgCl2, 5 mM DTT, 37 C, 12.5-200 uM ATP, 10 uM complex; [gamma-32P]ATP tracer; ORC1/4 interface; double Walker-B mutant
T2 construct: gene ORC1; ORC1 471-861 (BAH domain removed), ORC4 full-length 1-436, ORC5 1-284 (WHD removed); Sf9 insect cells, two-Strep-SumoStar tag on ORC1 cleaved; heterotrimer
T2 sequence (Q13415 471-861 D620A): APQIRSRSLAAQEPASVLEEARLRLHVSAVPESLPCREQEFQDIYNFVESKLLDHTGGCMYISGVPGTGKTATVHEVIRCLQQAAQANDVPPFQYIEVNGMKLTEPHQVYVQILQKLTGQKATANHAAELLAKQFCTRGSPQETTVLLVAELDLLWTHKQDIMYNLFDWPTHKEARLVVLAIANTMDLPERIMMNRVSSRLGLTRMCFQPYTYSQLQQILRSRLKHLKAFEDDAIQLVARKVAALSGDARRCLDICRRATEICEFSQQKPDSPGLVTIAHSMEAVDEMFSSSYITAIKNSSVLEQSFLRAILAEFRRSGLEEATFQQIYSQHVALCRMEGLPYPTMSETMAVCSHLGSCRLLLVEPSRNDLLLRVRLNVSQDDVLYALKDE
T2 sequence (O43929 1-436 D159A): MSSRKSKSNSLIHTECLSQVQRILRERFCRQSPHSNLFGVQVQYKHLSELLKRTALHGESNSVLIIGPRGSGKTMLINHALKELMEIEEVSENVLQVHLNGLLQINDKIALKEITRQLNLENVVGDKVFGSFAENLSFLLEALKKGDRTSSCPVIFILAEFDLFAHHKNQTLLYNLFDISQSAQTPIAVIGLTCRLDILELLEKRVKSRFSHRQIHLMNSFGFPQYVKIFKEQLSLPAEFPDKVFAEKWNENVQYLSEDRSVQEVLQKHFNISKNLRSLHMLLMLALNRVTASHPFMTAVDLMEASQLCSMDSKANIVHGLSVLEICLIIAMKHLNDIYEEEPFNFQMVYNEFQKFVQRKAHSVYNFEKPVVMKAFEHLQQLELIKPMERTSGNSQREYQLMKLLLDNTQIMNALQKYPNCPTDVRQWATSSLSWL
T2 sequence (O43913 1-284): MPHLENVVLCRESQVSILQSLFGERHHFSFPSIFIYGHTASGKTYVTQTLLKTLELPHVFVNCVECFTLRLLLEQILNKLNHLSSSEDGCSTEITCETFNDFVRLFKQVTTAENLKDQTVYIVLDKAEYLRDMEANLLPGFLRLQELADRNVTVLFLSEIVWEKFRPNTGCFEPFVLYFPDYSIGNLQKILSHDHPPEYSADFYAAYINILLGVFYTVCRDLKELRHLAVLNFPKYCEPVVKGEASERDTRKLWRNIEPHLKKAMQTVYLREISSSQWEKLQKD

[3] = biological target: T3, HsORC motor module (HsORC1/4/5) (Homo sapiens, UniProt O43913+O43929+Q13415); experiment: X-ray crystal structure, […] A; type: binding; conditions: unhydrolysed ATP at the ORC1/ORC4 and ORC4/ORC5 interfaces and on ORC5; Mg2+
T3 construct: gene ORC1; ORC1 471-861 (BAH domain removed), ORC4 full-length 1-436, ORC5 1-284 (WHD removed); Sf9 insect cells, two-Strep-SumoStar tag on ORC1 cleaved; heterotrimer
T3 sequence (Q13415 471-861): T2 sequence (Q13415 471-861 D620A) with A150D
T3 sequence (O43929 1-436): T2 sequence (O43929 1-436 D159A) with A159D
T3 sequence (O43913 1-284): T2 sequence (O43913 1-284)

[4] = biological target: T4, HsORC motor module (HsORC1/4/5) (Homo sapiens, UniProt O43913+O43929+Q13415, Q13415:R720Q); experiment: radiolabelled ATPase assay, TLC; type: biochemical; conditions: 50 mM Hepes-NaOH pH 7.5, 200 mM KCl, 5 mM MgCl2, 5 mM DTT, 37 C, 12.5-200 uM ATP, 10 uM complex; [gamma-32P]ATP tracer; ORC1/4 interface; Meier-Gorlin Syndrome mutant (sensor-2 trigger)
T4 construct: gene ORC1; ORC1 471-861 (BAH domain removed), ORC4 full-length 1-436, ORC5 1-284 (WHD removed); Sf9 insect cells, two-Strep-SumoStar tag on ORC1 cleaved; heterotrimer
T4 sequence (Q13415 471-861 R720Q): T2 sequence (Q13415 471-861 D620A) with A150D, R250Q
T4 sequence (O43929 1-436): T2 sequence (O43929 1-436 D159A) with A159D
T4 sequence (O43913 1-284): T2 sequence (O43913 1-284)

[5] = biological target: T5, HsORC motor module (HsORC1/4/5) (Homo sapiens, UniProt O43913+O43929+Q13415, Q13415:D620A); experiment: radiolabelled ATPase assay, TLC; type: biochemical; conditions: 50 mM Hepes-NaOH pH 7.5, 200 mM KCl, 5 mM MgCl2, 5 mM DTT, 37 C, 12.5-200 uM ATP, 10 uM complex; [gamma-32P]ATP tracer; ORC1/4 interface; Walker-B mutant
T5 construct: gene ORC1; ORC1 471-861 (BAH domain removed), ORC4 full-length 1-436, ORC5 1-284 (WHD removed); Sf9 insect cells, two-Strep-SumoStar tag on ORC1 cleaved; heterotrimer
T5 sequence (Q13415 471-861 D620A): T2 sequence (Q13415 471-861 D620A)
T5 sequence (O43929 1-436): T2 sequence (O43929 1-436 D159A) with A159D
T5 sequence (O43913 1-284): T2 sequence (O43913 1-284)

[6] = biological target: T6, HsORC motor module (HsORC1/4/5) (Homo sapiens, UniProt O43913+O43929+Q13415, O43929:Y174C); experiment: radiolabelled ATPase assay, TLC, Michaelis-Menten fit; type: biochemical; conditions: 50 mM Hepes-NaOH pH 7.5, 200 mM KCl, 5 mM MgCl2, 5 mM DTT, 37 C, 12.5-200 uM ATP, 10 uM complex; [gamma-32P]ATP tracer; ORC1/4 interface; Meier-Gorlin Syndrome mutant
T6 construct: gene ORC1; ORC1 471-861 (BAH domain removed), ORC4 full-length 1-436, ORC5 1-284 (WHD removed); Sf9 insect cells, two-Strep-SumoStar tag on ORC1 cleaved; heterotrimer
T6 sequence (Q13415 471-861): T2 sequence (Q13415 471-861 D620A) with A150D
T6 sequence (O43929 1-436 Y174C): T2 sequence (O43929 1-436 D159A) with A159D, Y174C
T6 sequence (O43913 1-284): T2 sequence (O43913 1-284)

`Nc1ncnc2c1ncn2[C@@H]1O[C@H](COP(=O)(O)OP(=O)(O)OP(=O)(O)O)[C@@H](O)[C@H]1O` [ATP] was tested, and the “radiolabelled ATPase assay, TLC” value [1] was “the ORC1 MGS mutation R720Q all show very little activity”, the “radiolabelled ATPase assay, TLC” value [2] was “A double mutant of the Walker-B motif of both ORC1 and ORC4 also abolished activity” and the “X-ray crystal structure, 3.4 A” value [3] was “The HsORC motor module crystallized with ATP, and the nucleotides can be clearly seen”. The “radiolabelled ATPase assay, TLC” value [4] was “ORC1-R720Q abolished ATPase activity of the motor module”, the “radiolabelled ATPase assay, TLC” value [5] was “Disrupting the ORC1 Walker-B motif (ORC1 D620A) effectively abolished ATPase activity” and the ATPase activity [6] was “renders the motor module hyperactive for ATPase activity”.
